According to PubChem BioAssay (NCI):
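Each compound was tested at five concentrations against cells in 96-well plates for 48 hours. Here, GI50 denotes the concentration required for 50% inhibition of growth. TGI is the concentration that stops growth completely.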

Key:
Experiment in all cases: inhibition of tumour cell growth, NCI panel, 48 h
786-0 renal = system: 786-0 renal
A549 NSCLC = system: A549 NSCLC
ACHN renal = system: ACHN renal
CCRF-CEM leukemia = system: CCRF-CEM leukemia
COLO 205 colon = system: COLO 205 colon
DLD-1 colon = system: DLD-1 colon
DMS 114 small cell lung = system: DMS 114 small cell lung
DMS 273 small cell lung = system: DMS 273 small cell lung
EKVX NSCLC = system: EKVX NSCLC
HCC-2998 colon = system: HCC-2998 colon
HCT-116 colon = system: HCT-116 colon
HCT-15 colon = system: HCT-15 colon
HL-60(TB) leukemia = system: HL-60(TB) leukemia
HOP-18 NSCLC = system: HOP-18 NSCLC
HOP-92 NSCLC = system: HOP-92 NSCLC
HT29 colon = system: HT29 colon
IGROV1 ovarian = system: IGROV1 ovarian
K-562 leukemia = system: K-562 leukemia
KM12 colon = system: KM12 colon
KM20L2 colon = system: KM20L2 colon
LXFL 529 NSCLC = system: LXFL 529 NSCLC
M14 melanoma = system: M14 melanoma
M19-MEL melanoma = system: M19-MEL melanoma
MALME-3M melanoma = system: MALME-3M melanoma
MOLT-4 leukemia = system: MOLT-4 leukemia
NCI-H226 lung = system: NCI-H226 lung
NCI-H23 lung = system: NCI-H23 lung
NCI-H460 lung = system: NCI-H460 lung
NCI-H522 lung = system: NCI-H522 lung
OVCAR-3 ovarian = system: OVCAR-3 ovarian
OVCAR-4 ovarian = system: OVCAR-4 ovarian
OVCAR-5 ovarian = system: OVCAR-5 ovarian
OVCAR-8 ovarian = system: OVCAR-8 ovarian
RPMI-8226 leukemia = system: RPMI-8226 leukemia
RXF 393 renal = system: RXF 393 renal
SF-268 CNS = system: SF-268 CNS
SF-295 CNS = system: SF-295 CNS
SF-539 CNS = system: SF-539 CNS
SK-MEL-2 melanoma = system: SK-MEL-2 melanoma
SK-MEL-28 melanoma = system: SK-MEL-28 melanoma
SK-MEL-5 melanoma = system: SK-MEL-5 melanoma
SK-OV-3 ovarian = system: SK-OV-3 ovarian
SN12C renal = system: SN12C renal
SNB-75 CNS = system: SNB-75 CNS
SNB-78 CNS = system: SNB-78 CNS
SR leukemia = system: SR leukemia
SW-620 colon = system: SW-620 colon
TK-10 renal = system: TK-10 renal
UACC-257 melanoma = system: UACC-257 melanoma
UACC-62 melanoma = system: UACC-62 melanoma
UO-31 renal = system: UO-31 renal
XF 498 CNS = system: XF 498 CNS

COc1ccc(/C(=N\NC(=S)NN)C(c2ccc(OC)cc2)C2C(=O)Oc3ccccc32)cc1 (configuration not stated)
GI50 (786-0 renal): > 100 µM
TGI (786-0 renal): > 100 µM
GI50 (A549 NSCLC): > 100 µM
TGI (A549 NSCLC): > 100 µM
GI50 (ACHN renal): > 100 µM
TGI (ACHN renal): > 100 µM
TGI (CCRF-CEM leukemia): > 100 µM
GI50 (COLO 205 colon): > 100 µM
TGI (COLO 205 colon): > 100 µM
GI50 (DLD-1 colon): > 100 µM
TGI (DLD-1 colon): > 100 µM
TGI (DMS 114 small cell lung): > 100 µM
GI50 (DMS 273 small cell lung): > 100 µM
TGI (DMS 273 small cell lung): > 100 µM
GI50 (EKVX NSCLC): > 100 µM
TGI (EKVX NSCLC): > 100 µM
TGI (HCC-2998 colon): > 100 µM
GI50 (HCT-116 colon): > 100 µM
TGI (HCT-116 colon): > 100 µM
GI50 (HCT-15 colon): > 100 µM
TGI (HCT-15 colon): > 100 µM
GI50 (HL-60(TB) leukemia): > 100 µM
TGI (HL-60(TB) leukemia): > 100 µM
GI50 (HOP-18 NSCLC): > 100 µM
TGI (HOP-18 NSCLC): > 100 µM
GI50 (HOP-92 NSCLC): > 100 µM
TGI (HOP-92 NSCLC): > 100 µM
GI50 (HT29 colon): > 100 µM
TGI (HT29 colon): > 100 µM
GI50 (IGROV1 ovarian): > 100 µM
TGI (IGROV1 ovarian): > 100 µM
GI50 (K-562 leukemia): > 100 µM
TGI (K-562 leukemia): > 100 µM
GI50 (KM12 colon): > 100 µM
TGI (KM12 colon): > 100 µM
GI50 (KM20L2 colon): > 100 µM
TGI (KM20L2 colon): > 100 µM
TGI (LXFL 529 NSCLC): > 100 µM
GI50 (M14 melanoma): > 100 µM
TGI (M14 melanoma): > 100 µM
GI50 (M19-MEL melanoma): > 100 µM
TGI (M19-MEL melanoma): > 100 µM
GI50 (MALME-3M melanoma): > 100 µM
TGI (MALME-3M melanoma): > 100 µM
GI50 (MOLT-4 leukemia): > 100 µM
TGI (MOLT-4 leukemia): > 100 µM
GI50 (NCI-H226 lung): > 100 µM
TGI (NCI-H226 lung): > 100 µM
GI50 (NCI-H23 lung): > 100 µM
TGI (NCI-H23 lung): > 100 µM
GI50 (NCI-H460 lung): > 100 µM
TGI (NCI-H460 lung): > 100 µM
TGI (NCI-H522 lung): > 100 µM
GI50 (OVCAR-3 ovarian): > 100 µM
TGI (OVCAR-3 ovarian): > 100 µM
GI50 (OVCAR-4 ovarian): > 100 µM
TGI (OVCAR-4 ovarian): > 100 µM
GI50 (OVCAR-5 ovarian): > 100 µM
TGI (OVCAR-5 ovarian): > 100 µM
GI50 (OVCAR-8 ovarian): > 100 µM
TGI (OVCAR-8 ovarian): > 100 µM
GI50 (RPMI-8226 leukemia): > 100 µM
TGI (RPMI-8226 leukemia): > 100 µM
GI50 (RXF 393 renal): > 100 µM
TGI (RXF 393 renal): > 100 µM
GI50 (SF-268 CNS): > 100 µM
TGI (SF-268 CNS): > 100 µM
GI50 (SF-295 CNS): > 100 µM
TGI (SF-295 CNS): > 100 µM
GI50 (SF-539 CNS): > 100 µM
TGI (SF-539 CNS): > 100 µM
GI50 (SK-MEL-2 melanoma): > 100 µM
TGI (SK-MEL-2 melanoma): > 100 µM
TGI (SK-MEL-28 melanoma): > 100 µM
GI50 (SK-MEL-5 melanoma): > 100 µM
TGI (SK-MEL-5 melanoma): > 100 µM
GI50 (SK-OV-3 ovarian): > 100 µM
TGI (SK-OV-3 ovarian): > 100 µM
GI50 (SN12C renal): > 100 µM
TGI (SN12C renal): > 100 µM
GI50 (SNB-75 CNS): > 100 µM
TGI (SNB-75 CNS): > 100 µM
GI50 (SNB-78 CNS): > 100 µM
TGI (SNB-78 CNS): > 100 µM
TGI (SR leukemia): > 100 µM
GI50 (SW-620 colon): > 100 µM
TGI (SW-620 colon): > 100 µM
GI50 (TK-10 renal): > 100 µM
TGI (TK-10 renal): > 100 µM
GI50 (UACC-257 melanoma): > 100 µM
TGI (UACC-257 melanoma): > 100 µM
GI50 (UACC-62 melanoma): > 100 µM
TGI (UACC-62 melanoma): > 100 µM
GI50 (UO-31 renal): > 100 µM
TGI (UO-31 renal): > 100 µM
GI50 (XF 498 CNS): > 100 µM
TGI (XF 498 CNS): > 100 µM
